Source: the supplement of paper PMC10307832

How the values were obtained:
Assay in all cases: relative viability (nuclei count vs DMSO), 5 days (fraction); higher = more cells survive
NCI-H2087 = system: NCI-H2087
Procedure, shortened: (§1)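 Dosing by pin tool came one day after lung cancer cell lines were seeded in 1536-well plates, using either one drug or a fixed anchor-drug dose plus five library-drug doses (not always all listed) in √10 steps. After 5 days, nuclei were counted on 4× images. Relative viability is treated-well nuclei count divided by vehicle-well nuclei count, and values are medians of duplicate plates.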

LXF-289 = system: LXF-289
Procedure, shortened: as §1

NCI-H1651 = system: NCI-H1651
Procedure, shortened: as §1

COR-L23 = system: COR-L23
Procedure, shortened: as §1

HCC-44 = system: HCC-44
Procedure, shortened: as §1

LU99A = system: LU99A
Procedure, shortened: as §1

NCI-H1792 = system: NCI-H1792
Procedure, shortened: as §1

NCI-H1563 = system: NCI-H1563
Procedure, shortened: as §1

NCI-H1355 = system: NCI-H1355
Procedure, shortened: as §1

CAL-12T = system: CAL-12T
Procedure, shortened: as §1

BEN = system: BEN
Procedure, shortened: as §1

NCI-H460 = system: NCI-H460
Procedure, shortened: as §1

PC-14 = system: PC-14
Procedure, shortened: as §1

NCI-H1755 = system: NCI-H1755
Procedure, shortened: as §1

NCI-H1993 = system: NCI-H1993
Procedure, shortened: as §1

NCI-H1666 = system: NCI-H1666
Procedure, shortened: as §1

SK-MES-1 = system: SK-MES-1
Procedure, shortened: as §1

NCI-H520 = system: NCI-H520
Procedure, shortened: as §1

NCI-H2085 = system: NCI-H2085
Procedure, shortened: as §1

NCI-H1437 = system: NCI-H1437
Procedure, shortened: as §1

Cc1cn(-c2cc(NC(=O)c3ccc(C)c(Nc4nccc(-c5cccnc5)n4)c3)cc(C(F)(F)F)c2)cn1 [Nilotinib] + C[C@]1(O)C[C@@H](c2nc(-c3ccc4ccc(-c5ccccc5)nc4c3)c3c(N)nccn32)C1 [Linsitinib] (partner 1 µM)
relative viability (NCI-H2087; first compound 0.001 µM): 0.855
relative viability (NCI-H2087; first compound 0.003162 µM): 0.949
relative viability (NCI-H2087; first compound 0.01 µM): 1.08
relative viability (NCI-H2087; first compound 0.03162 µM): 0.852
relative viability (NCI-H2087; first compound 0.1 µM): 0.66
relative viability (LXF-289; first compound 0.001 µM): 0.979
relative viability (LXF-289; first compound 0.003162 µM): 1.15
relative viability (LXF-289; first compound 0.01 µM): 1.09
relative viability (LXF-289; first compound 0.03162 µM): 0.949
relative viability (LXF-289; first compound 0.1 µM): 0.92
relative viability (NCI-H1651; first compound 0.001 µM): 1.08
relative viability (NCI-H1651; first compound 0.003162 µM): 1.42
relative viability (NCI-H1651; first compound 0.01 µM): 1.32
relative viability (NCI-H1651; first compound 0.03162 µM): 0.879
relative viability (NCI-H1651; first compound 0.1 µM): 1.06
relative viability (COR-L23; first compound 0.001 µM): 0.777
relative viability (COR-L23; first compound 0.003162 µM): 1.18
relative viability (COR-L23; first compound 0.01 µM): 1.24
relative viability (COR-L23; first compound 0.03162 µM): 0.781
relative viability (COR-L23; first compound 0.1 µM): 0.903
relative viability (HCC-44; first compound 0.001 µM): 0.624
relative viability (HCC-44; first compound 0.003162 µM): 0.768
relative viability (HCC-44; first compound 0.01 µM): 0.821
relative viability (HCC-44; first compound 0.03162 µM): 0.615
relative viability (HCC-44; first compound 0.1 µM): 0.739
relative viability (LU99A; first compound 0.001 µM): 0.468
relative viability (LU99A; first compound 0.003162 µM): 0.59
relative viability (LU99A; first compound 0.01 µM): 0.593
relative viability (LU99A; first compound 0.03162 µM): 0.568
relative viability (LU99A; first compound 0.1 µM): 0.318
relative viability (NCI-H1792; first compound 0.001 µM): 0.334
relative viability (NCI-H1792; first compound 0.01 µM): 0.583
relative viability (NCI-H1792; first compound 0.1 µM): 0.565
relative viability (NCI-H1563; first compound 0.001 µM): 1.13
relative viability (NCI-H1563; first compound 0.003162 µM): 1.17
relative viability (NCI-H1563; first compound 0.01 µM): 1.17
relative viability (NCI-H1563; first compound 0.03162 µM): 1.15
relative viability (NCI-H1355; first compound 0.001 µM): 0.815
relative viability (NCI-H1355; first compound 0.003162 µM): 1.11
relative viability (NCI-H1355; first compound 0.01 µM): 1.16
relative viability (NCI-H1355; first compound 0.03162 µM): 0.836
relative viability (NCI-H1355; first compound 0.1 µM): 0.934
relative viability (CAL-12T; first compound 0.001 µM): 0.75
relative viability (CAL-12T; first compound 0.003162 µM): 0.771
relative viability (CAL-12T; first compound 0.01 µM): 0.946
relative viability (CAL-12T; first compound 0.03162 µM): 0.714
relative viability (CAL-12T; first compound 0.1 µM): 0.565
relative viability (BEN; first compound 0.001 µM): 0.95
relative viability (BEN; first compound 0.003162 µM): 0.997
relative viability (BEN; first compound 0.01 µM): 1.26
relative viability (BEN; first compound 0.1 µM): 1.05
relative viability (NCI-H460; first compound 0.001 µM): 0.586
relative viability (NCI-H460; first compound 0.003162 µM): 1.1
relative viability (NCI-H460; first compound 0.01 µM): 1.75
relative viability (NCI-H460; first compound 0.03162 µM): 0.319
relative viability (NCI-H460; first compound 0.1 µM): 0.507
relative viability (PC-14; first compound 0.001 µM): 0.883
relative viability (PC-14; first compound 0.003162 µM): 1.05
relative viability (PC-14; first compound 0.01 µM): 1.07
relative viability (PC-14; first compound 0.03162 µM): 0.898
relative viability (PC-14; first compound 0.1 µM): 1.01
relative viability (NCI-H1755; first compound 0.001 µM): 1.02
relative viability (NCI-H1755; first compound 0.003162 µM): 1.15
relative viability (NCI-H1755; first compound 0.01 µM): 1.12
relative viability (NCI-H1755; first compound 0.03162 µM): 1.07
relative viability (NCI-H1755; first compound 0.1 µM): 0.894
relative viability (NCI-H1993; first compound 0.001 µM): 0.808
relative viability (NCI-H1993; first compound 0.003162 µM): 0.74
relative viability (NCI-H1993; first compound 0.01 µM): 0.702
relative viability (NCI-H1993; first compound 0.03162 µM): 0.804
relative viability (NCI-H1993; first compound 0.1 µM): 0.769
relative viability (NCI-H1666; first compound 0.001 µM): 0.854
relative viability (NCI-H1666; first compound 0.003162 µM): 0.954
relative viability (NCI-H1666; first compound 0.01 µM): 0.74
relative viability (NCI-H1666; first compound 0.03162 µM): 0.911
relative viability (NCI-H1666; first compound 0.1 µM): 0.945
relative viability (SK-MES-1; first compound 0.003162 µM): 1.29
relative viability (SK-MES-1; first compound 0.01 µM): 1.16
relative viability (SK-MES-1; first compound 0.03162 µM): 1.12
relative viability (NCI-H520; first compound 0.001 µM): 0.792
relative viability (NCI-H520; first compound 0.01 µM): 1.2
relative viability (NCI-H520; first compound 0.03162 µM): 0.91
relative viability (NCI-H520; first compound 0.1 µM): 0.928
relative viability (NCI-H2085; first compound 0.001 µM): 0.864
relative viability (NCI-H2085; first compound 0.003162 µM): 1.08
relative viability (NCI-H2085; first compound 0.01 µM): 1.15
relative viability (NCI-H2085; first compound 0.03162 µM): 0.888
relative viability (NCI-H2085; first compound 0.1 µM): 0.884
relative viability (NCI-H1437; first compound 0.001 µM): 0.879
relative viability (NCI-H1437; first compound 0.003162 µM): 1.19
relative viability (NCI-H1437; first compound 0.01 µM): 1.24
relative viability (NCI-H1437; first compound 0.03162 µM): 0.747
relative viability (NCI-H1437; first compound 0.1 µM): 0.755
